Measured values: article PMC3269340, “Pharmacokinetics of memantine in rats and mice” (PLoS Currents, 2012)

How the values were obtained:
Type in all cases: in vitro ADME
OATP2B1 = molecular target: T1, OATP2B1 (Homo sapiens, UniProt O94956); experiment: Direct uptake transporter assay, OATP2B1; settings: for Accumulation in transporter transfected cells: OATP2B1-transfected cells; for Accumulation in parental cells: parental MDCKII cells (OATP2B1 line)
T1 construct: expressed in transfected cells; host or cells: MDCKII cells
T1 sequence (O94956 1-709): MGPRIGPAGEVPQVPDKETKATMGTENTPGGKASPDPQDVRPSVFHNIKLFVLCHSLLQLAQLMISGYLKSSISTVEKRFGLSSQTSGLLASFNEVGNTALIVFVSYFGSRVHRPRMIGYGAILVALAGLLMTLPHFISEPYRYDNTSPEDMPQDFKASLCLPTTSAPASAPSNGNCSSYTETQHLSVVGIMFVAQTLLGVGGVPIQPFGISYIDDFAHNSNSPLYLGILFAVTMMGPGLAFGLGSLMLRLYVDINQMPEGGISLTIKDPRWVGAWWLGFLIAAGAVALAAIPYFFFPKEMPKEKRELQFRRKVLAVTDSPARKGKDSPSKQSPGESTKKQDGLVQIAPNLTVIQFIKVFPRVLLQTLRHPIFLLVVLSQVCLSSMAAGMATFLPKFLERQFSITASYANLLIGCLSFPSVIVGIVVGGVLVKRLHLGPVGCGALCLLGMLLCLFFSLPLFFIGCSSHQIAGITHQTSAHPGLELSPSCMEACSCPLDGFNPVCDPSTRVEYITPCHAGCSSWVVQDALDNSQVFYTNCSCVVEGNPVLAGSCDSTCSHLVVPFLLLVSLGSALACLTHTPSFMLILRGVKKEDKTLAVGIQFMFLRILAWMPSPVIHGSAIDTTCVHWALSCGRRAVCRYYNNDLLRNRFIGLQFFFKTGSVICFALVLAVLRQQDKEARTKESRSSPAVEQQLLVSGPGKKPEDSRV
Procedure: (§1) To determine whether memantine is a substrate of the human OATP2B1 (OATP-B), OCT1, OCT2, OAT3, PEPT1, PEPT2 uptake transporters.
(§2) The potential for memantine to be a substrate of an uptake transporter was determined directly by comparing the uptake of memantine into cells expressing the selected uptake transporter with its uptake into control cells. Memantine was added to transporter-expressing and control cells at two concentrations (PEPT1 and PEPT2 100 and 300 µM, OCT1 and OCT2 50 and 100 µM, OATP2B1 100 and 300 µM), and incubated with cells for 2 and 20 min at 37±1°C (75 µL final incubation volume). […] Incubations were carried out as described in the indirect uptake transporter assays. The concentration of memantine was determined by LC-MS/MS.

OCT2 = molecular target: T2, OCT2 (Homo sapiens, UniProt O15244); experiment: Direct uptake transporter assay, OCT2; settings: for Accumulation in transporter transfected cells: OCT2-transfected cells; for Accumulation in parental cells: parental CHO cells (OCT2 line)
T2 construct: expressed in transfected cells; host or cells: CHO cells
T2 sequence (O15244 1-555): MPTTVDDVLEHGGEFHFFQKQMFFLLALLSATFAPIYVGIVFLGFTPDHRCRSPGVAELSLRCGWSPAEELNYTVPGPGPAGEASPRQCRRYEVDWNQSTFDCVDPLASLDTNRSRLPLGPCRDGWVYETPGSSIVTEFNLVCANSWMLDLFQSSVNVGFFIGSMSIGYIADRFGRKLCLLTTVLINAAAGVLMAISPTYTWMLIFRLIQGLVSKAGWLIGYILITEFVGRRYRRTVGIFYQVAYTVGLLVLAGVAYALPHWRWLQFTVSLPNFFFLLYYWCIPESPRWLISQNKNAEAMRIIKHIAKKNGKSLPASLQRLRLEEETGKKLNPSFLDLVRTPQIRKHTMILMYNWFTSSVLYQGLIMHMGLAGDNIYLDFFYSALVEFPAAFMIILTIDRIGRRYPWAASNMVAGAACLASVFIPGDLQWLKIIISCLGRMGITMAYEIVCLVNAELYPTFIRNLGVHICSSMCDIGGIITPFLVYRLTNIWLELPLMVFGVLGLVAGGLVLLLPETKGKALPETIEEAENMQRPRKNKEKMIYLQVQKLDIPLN
Procedure: as §1, §2

[1] = Stability in human liver microsomes; settings: 0.5 mg/mL pooled male microsomes, read-out: Intrinsic Clearance (Cl int) Liver Microsomes
Procedure: Memantine (1 μM) was incubated in 0.5 mg/mL of pooled male rat, mouse, or human liver microsomes (obtained commercially), in 0.1 M phosphate buffer at 37 °C. After pre-warming the mixture for 5 min, reactions were initiated by the addition of NADPH (1 mM). Aliquots (80 μL) were taken at 0, 5, 10, 20 and 40 min, and the reaction immediately terminated by adding into 80 μL of acetonitrile containing an analytical internal standard (IS). Samples were centrifuged and the supernatant fractions analyzed by LC-MS/MS with multiple reaction monitoring (MRM). All incubations were performed in duplicate. Testosterone was used as the positive control. The MRM area response ratio of the analyte over IS for Time=0(control) was set to 100%, the relative decrease in MRM area ratio intensity over time against that of the control (percent parent decrease) was used to determine the half-life (t1/2) of memantine in the incubation. Half-life values were calculated from the relationship:
t1/2 (min) = -0.693/λ, where λ is the slope of the Ln concentration vs time curve. The intrinsic clearance (Clint) was calculated as:
Clint = (0.693 x incubation volume (μL))/(t½ (min) x mg of microsomal protein)

CC12CC3CC(C)(C1)CC(N)(C3)C2 [memantine]
substrate of OATP2B1 uptake transporter (OATP2B1): appeared to be a substrate
accumulation in transporter-transfected cells higher than in parental cells (OATP2B1; OATP2B1): > 1.5 fold
Highest Fold Activation (OATP2B1; OATP2B1, 300 µM, 20 min): 2.1 (300 µM, 20 min)
Accumulation in transporter transfected cells (OATP2B1; 2 min, 100 µM): 11317 pmol/mg
Accumulation in transporter transfected cells (OATP2B1; 2 min, 300 µM): 18296 pmol/mg
Accumulation in transporter transfected cells (OATP2B1; 20 min, 100 µM): 20820 pmol/mg
Accumulation in transporter transfected cells (OATP2B1; 20 min, 300 µM): 45866 pmol/mg
Accumulation in parental cells (OATP2B1; 2 min, 100 µM): 6409 pmol/mg
Accumulation in parental cells (OATP2B1; 2 min, 300 µM): 10891 pmol/mg
Accumulation in parental cells (OATP2B1; 20 min, 100 µM): 10889 pmol/mg
Accumulation in parental cells (OATP2B1; 20 min, 300 µM): 21496 pmol/mg
substrate of OCT2 uptake transporter (OCT2): appeared to be a substrate
accumulation in transporter-transfected cells higher than in parental cells (OCT2; OCT2): > 1.5 fold
Highest Fold Activation (OCT2; OCT2, 100µM, 2 min): 1.88 (100µM, 2 min)
Accumulation in transporter transfected cells (OCT2; 2 min, 50 µM): 8492 pmol/mg
Accumulation in transporter transfected cells (OCT2; 2 min, 100 µM): 15071 pmol/mg
Accumulation in transporter transfected cells (OCT2; 20 min, 50 µM): 8866 pmol/mg
Accumulation in transporter transfected cells (OCT2; 20 min, 100 µM): 15495 pmol/mg
Accumulation in parental cells (OCT2; 2 min, 50 µM): 5660 pmol/mg
Accumulation in parental cells (OCT2; 2 min, 100 µM): 8000 pmol/mg
Accumulation in parental cells (OCT2; 20 min, 50 µM): 5790 pmol/mg
Accumulation in parental cells (OCT2; 20 min, 100 µM): 8459 pmol/mg
microsomal CLint at 1 μM [1]: < 13.9 µL/min/mg
